According to ChEMBL document CHEMBL1201862, “PubChem BioAssay data set” (2004):
The source made the active and inactive calls.

Assays:
[1] = biological target: T1, Small ubiquitin-related modifier 1 (Homo sapiens, UniProt P63165); experiment: inhibitors of SUMO1 peptide binding, dose response, biochemical, fluorescence polarization, uHTS hits (AID 624382); assay type: functional; details: read-out: IC50_Mean
Troponin, cardiac muscle = Troponin, cardiac muscle (Homo sapiens, UniProt P19429+P45379+P63316); experiment: inhibitors of cardiac thin filament calcium sensitivity, dose response, biochemical, fluorescence, cardiac regulated thin filaments, triplicate IC50 (AID 504742); assay type: protein-complex assay
[2] = biological target: T2, Long-chain-fatty-acid--AMP ligase FadD28 (Mycobacterium tuberculosis, UniProt P9WQ59); experiment: Fluorescence polarization aasay to screen for inhibitors that compete for the binding of FadD28 to a bisubstrate Measured in Biochemical System Using Plate Reader - 2147-01_Inhibitor_Dose_CherryPick_Activity.; assay type: functional, Mycobacterium tuberculosis H37Rv
T2 sequence (P9WQ59 whole entry): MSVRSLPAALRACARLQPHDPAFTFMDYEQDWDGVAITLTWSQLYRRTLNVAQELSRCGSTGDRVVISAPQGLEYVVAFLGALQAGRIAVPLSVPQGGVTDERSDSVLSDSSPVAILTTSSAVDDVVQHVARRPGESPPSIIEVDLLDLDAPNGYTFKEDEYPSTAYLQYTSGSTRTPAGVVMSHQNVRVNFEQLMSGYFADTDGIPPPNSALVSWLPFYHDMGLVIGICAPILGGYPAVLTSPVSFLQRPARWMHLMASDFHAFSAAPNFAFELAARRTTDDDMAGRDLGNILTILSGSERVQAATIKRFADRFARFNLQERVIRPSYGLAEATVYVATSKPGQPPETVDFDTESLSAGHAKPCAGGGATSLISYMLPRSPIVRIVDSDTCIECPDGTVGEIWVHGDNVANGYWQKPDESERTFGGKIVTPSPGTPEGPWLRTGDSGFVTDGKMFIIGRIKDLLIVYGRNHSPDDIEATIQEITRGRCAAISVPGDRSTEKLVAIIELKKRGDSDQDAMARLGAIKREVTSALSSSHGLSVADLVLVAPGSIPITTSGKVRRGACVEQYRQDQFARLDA

[3] = biological target: T3, Rac GTPase-activating protein 1 (Homo sapiens, UniProt Q9H0H5); experiment: MgcRacGAP GTPase-activating activity inhibitors, confirmation, biochemical, ADP Hunter fluorescence, primary and confirmatory (AID 624330); assay type: functional
T3 sequence (Q9H0H5 whole entry): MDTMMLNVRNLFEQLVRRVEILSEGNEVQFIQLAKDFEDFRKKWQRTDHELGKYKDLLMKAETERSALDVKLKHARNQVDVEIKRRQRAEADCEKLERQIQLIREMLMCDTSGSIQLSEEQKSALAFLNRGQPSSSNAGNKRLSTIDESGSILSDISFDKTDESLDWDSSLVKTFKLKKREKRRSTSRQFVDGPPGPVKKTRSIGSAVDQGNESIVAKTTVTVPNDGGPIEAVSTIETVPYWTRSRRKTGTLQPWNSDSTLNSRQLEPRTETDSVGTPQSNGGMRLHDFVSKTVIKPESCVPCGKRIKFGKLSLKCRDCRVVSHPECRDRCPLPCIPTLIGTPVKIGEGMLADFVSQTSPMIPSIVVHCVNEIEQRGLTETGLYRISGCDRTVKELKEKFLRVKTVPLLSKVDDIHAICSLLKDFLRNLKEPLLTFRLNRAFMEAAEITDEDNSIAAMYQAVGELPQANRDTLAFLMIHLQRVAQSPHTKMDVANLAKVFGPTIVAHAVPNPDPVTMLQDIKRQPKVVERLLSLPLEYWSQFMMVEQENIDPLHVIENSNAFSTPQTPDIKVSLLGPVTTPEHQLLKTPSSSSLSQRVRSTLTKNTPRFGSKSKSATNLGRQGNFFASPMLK

[4] = biological target: T1, Small ubiquitin-related modifier 1; experiment: inhibitors of SUMO1 partner interactions, dose response, biochemical, FRET (AID 624383); assay type: functional; details: read-out: IC50_Mean
[5] = biological target: T4, Low molecular weight phosphotyrosine protein phosphatase (Homo sapiens, UniProt P24666); assay type: functional; details: read-out: IC50_Mean
T4 sequence (P24666 whole entry): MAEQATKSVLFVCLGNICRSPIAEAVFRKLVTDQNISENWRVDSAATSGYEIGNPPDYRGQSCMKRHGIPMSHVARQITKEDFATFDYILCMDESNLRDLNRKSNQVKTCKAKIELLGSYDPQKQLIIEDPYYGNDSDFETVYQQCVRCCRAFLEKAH

[6] = biological target: T4, Low molecular weight phosphotyrosine protein phosphatase; assay type: functional; details: read-out: IC50_Mean; remark: listed apart in the source
[7] = biological target: T5, Serine/threonine-protein phosphatase (Candida dubliniensis (strain CD36 / CBS 7987 / NCPF 3949 / NRRLY-17841) (Yeast), UniProt B9W6M3); experiment: calcineurin pathway inhibitors in yeast reporter, dose response, S. cerevisiae, CDRE-lacZ, luminescence, secondary (AID 2388); assay type: functional, cell-based;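 further: yeast reporter cells carrying a calcineurin-responsive lacZ construct stimulated with calcium chloride; luminescent beta-galactosidase reporter signal in whole cells rather than isolated phosphatase activity; potency for inhibition where a drop in reporter signal means calcineurin blockade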
T5 sequence (B9W6M3 whole entry): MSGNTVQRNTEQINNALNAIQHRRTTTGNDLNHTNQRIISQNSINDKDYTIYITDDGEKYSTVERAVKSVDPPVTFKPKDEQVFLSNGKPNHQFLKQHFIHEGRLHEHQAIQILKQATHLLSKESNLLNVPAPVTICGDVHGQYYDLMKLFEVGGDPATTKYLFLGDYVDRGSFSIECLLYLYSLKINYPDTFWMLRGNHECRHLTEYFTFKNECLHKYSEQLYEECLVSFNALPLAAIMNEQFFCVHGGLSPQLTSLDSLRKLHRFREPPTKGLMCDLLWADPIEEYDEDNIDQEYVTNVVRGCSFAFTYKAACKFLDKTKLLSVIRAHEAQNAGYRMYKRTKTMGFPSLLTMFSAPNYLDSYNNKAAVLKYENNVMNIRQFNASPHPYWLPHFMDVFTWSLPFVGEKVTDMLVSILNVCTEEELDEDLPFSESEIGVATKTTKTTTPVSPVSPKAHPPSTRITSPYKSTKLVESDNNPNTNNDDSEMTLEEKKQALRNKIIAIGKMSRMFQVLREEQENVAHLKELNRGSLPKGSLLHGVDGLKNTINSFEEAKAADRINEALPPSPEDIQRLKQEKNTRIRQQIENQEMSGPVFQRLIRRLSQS

[8] = C. albicans growth with fluconazole, confirmation, fluorescence, retest (AID 2467); assay type: functional, cell-based
[9] = NIH-3T3 fibroblast cytotoxicity, dose response, cytotoxicity control, cell-based, fluorescence, Alamar Blue, secondary assay (AID 2327); assay type: functional;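 further: NIH-3T3 mouse fibroblasts cultured with fluconazole at 8 µg/mL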
[10] = biological target: ATP-dependent molecular chaperone HSP82 (Candida albicans (strain WO-1) (Yeast), UniProt C4YTQ8); experiment: loss of DOC-induced GRE-beta-galactosidase reporter signal, dose response, Hsp90 inhibitor project, S. cerevisiae, luminescence (AID 2400); assay type: functional, cell-based;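 further: beta-galactosidase luminescence from glucocorticoid response element reporter as proxy for Hsp90 function; inhibitor potency where signal loss means Hsp90 inhibition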
Sequence of ATP-dependent molecular chaperone HSP82 (C4YTQ8 whole entry): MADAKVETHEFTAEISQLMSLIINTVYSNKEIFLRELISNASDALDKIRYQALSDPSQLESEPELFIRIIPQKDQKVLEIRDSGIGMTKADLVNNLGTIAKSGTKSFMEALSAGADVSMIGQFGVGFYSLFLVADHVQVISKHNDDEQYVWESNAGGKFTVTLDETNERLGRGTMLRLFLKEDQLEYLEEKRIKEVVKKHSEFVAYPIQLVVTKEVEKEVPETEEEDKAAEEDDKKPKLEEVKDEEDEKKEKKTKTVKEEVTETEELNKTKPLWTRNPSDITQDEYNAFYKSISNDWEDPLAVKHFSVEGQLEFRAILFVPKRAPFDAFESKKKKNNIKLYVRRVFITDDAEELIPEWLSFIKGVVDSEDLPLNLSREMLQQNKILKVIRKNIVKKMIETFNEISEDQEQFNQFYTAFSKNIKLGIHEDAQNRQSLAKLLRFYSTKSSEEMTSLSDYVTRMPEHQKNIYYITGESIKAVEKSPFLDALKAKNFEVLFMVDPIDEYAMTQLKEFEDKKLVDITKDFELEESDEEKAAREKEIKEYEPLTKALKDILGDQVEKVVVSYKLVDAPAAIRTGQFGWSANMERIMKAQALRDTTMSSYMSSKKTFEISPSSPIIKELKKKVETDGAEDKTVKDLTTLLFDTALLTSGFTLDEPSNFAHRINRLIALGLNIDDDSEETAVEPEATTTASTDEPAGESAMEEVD

[11] = LGR2 antagonists, dose response, cell-based, HEK293, CRE-luciferase reporter, cherry pick, set 2 (AID 743343); assay type: functional;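 further: transfected cells were stimulated with diluted bursicon conditioned medium after compound addition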
[12] = HepG2 cell cytotoxicity, dose response, cytotoxicity control, plate reader, cherry-pick, antagonist series (AID 743416); assay type: functional, cell-based
[13] = A549 cell cytotoxicity, dose response, cytotoxicity control, plate reader, cherry-pick, antagonist series (AID 743412); assay type: functional, cell-based
[14] = MC4R antagonists, dose response, counter-screen for LGR2 antagonist project, cell-based, plate reader, cherry pick (AID 743444); assay type: functional;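 further: transfected HEK 293 cells stimulated with alpha-MSH peptide; potency of inhibitors of the alpha-MSH evoked signal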
[15] = inhibitors of PGC1a acetylation in cells, dose response, cell-based, cherry-picked samples (AID 720514); assay type: functional;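 further: potency may reflect raised or lowered acetylation signal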
[16] = biological target: Ras and Rab interactor 1/Tyrosine-protein kinase ABL1 (Homo sapiens, UniProt P00519+Q13671); assay type: functional;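 further: biochemical TR-FRET dose-response test measuring inhibition of binding between Rin1 and Abl proteins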
Sequence of Ras and Rab interactor 1/Tyrosine-protein kinase ABL1 (P00519 whole entry): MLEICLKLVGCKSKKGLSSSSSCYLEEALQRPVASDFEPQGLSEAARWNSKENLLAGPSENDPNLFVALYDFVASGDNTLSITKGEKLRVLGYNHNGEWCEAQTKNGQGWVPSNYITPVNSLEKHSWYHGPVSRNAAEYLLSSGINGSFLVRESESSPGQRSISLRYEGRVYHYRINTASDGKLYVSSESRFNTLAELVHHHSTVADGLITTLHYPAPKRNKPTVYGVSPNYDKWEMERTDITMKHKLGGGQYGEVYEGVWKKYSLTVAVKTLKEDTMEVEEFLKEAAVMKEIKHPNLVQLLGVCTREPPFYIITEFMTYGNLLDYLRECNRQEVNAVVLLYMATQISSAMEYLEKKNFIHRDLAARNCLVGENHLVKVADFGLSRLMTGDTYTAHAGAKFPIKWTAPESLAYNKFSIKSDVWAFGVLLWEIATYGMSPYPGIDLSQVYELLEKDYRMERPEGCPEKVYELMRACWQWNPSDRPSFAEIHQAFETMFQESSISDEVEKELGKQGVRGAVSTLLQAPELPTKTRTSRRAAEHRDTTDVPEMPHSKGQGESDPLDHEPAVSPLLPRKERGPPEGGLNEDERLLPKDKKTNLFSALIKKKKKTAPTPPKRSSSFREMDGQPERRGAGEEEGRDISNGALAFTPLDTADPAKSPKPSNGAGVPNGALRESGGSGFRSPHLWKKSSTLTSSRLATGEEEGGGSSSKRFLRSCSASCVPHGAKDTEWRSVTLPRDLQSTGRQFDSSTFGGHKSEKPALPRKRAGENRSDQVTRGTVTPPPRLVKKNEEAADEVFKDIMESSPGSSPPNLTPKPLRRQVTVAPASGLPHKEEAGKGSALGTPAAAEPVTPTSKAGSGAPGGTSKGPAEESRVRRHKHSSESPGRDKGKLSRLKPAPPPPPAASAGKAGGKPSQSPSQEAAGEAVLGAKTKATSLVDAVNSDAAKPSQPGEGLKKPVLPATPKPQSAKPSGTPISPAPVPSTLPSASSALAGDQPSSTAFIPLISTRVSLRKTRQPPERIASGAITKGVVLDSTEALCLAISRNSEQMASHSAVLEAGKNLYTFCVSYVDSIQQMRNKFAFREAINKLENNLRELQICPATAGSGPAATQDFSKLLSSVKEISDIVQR
Sequence of Ras and Rab interactor 1/Tyrosine-protein kinase ABL1 (Q13671 whole entry): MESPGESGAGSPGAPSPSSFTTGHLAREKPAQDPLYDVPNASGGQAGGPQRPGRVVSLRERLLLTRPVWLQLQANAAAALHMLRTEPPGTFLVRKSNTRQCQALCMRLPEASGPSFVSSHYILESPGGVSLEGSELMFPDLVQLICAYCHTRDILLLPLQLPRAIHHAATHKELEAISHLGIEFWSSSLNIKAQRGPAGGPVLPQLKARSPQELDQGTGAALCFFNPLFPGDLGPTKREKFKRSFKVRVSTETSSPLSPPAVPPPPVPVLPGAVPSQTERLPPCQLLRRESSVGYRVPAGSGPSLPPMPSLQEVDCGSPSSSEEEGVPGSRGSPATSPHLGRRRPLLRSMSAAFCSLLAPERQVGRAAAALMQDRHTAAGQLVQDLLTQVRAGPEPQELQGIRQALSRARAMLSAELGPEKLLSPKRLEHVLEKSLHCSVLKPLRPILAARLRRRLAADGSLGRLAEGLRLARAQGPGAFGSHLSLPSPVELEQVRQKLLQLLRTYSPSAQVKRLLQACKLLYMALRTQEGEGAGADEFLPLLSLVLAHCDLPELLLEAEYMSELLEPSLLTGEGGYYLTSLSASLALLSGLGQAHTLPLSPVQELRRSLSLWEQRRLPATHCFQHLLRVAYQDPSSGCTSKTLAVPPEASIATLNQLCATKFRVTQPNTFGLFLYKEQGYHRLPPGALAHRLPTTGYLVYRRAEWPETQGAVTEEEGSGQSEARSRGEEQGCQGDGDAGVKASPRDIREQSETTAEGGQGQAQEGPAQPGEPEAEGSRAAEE

[17] = CRF-BP/CRF-R2 complex antagonists, dose response, cell-based, uHTS hits, 384-well (AID 651639); assay type: functional, Homo sapiens; details: read-out: IC50_Mean
[18] = biological target: T6, Corticotropin-releasing factor receptor 2/Corticotropin-releasing factor-binding protein (Homo sapiens, UniProt P24387+Q13324); experiment: activators of CRF receptor 2 with binding protein – uHTS hits, confirmation (AID 602473); assay type: functional; details: read-out: EC50_Mean
T6 sequence (Q13324 whole entry): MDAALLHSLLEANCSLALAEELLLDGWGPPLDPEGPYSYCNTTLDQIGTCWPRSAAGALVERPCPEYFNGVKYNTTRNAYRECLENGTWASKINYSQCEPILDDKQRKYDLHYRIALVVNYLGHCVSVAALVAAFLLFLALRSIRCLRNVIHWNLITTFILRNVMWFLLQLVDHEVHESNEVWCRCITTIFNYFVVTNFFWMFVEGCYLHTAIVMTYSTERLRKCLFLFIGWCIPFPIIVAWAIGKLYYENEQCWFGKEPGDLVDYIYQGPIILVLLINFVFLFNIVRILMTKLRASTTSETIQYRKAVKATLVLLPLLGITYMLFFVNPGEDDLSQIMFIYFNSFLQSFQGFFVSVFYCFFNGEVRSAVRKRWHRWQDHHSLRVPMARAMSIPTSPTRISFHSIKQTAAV
T6 sequence (P24387 whole entry): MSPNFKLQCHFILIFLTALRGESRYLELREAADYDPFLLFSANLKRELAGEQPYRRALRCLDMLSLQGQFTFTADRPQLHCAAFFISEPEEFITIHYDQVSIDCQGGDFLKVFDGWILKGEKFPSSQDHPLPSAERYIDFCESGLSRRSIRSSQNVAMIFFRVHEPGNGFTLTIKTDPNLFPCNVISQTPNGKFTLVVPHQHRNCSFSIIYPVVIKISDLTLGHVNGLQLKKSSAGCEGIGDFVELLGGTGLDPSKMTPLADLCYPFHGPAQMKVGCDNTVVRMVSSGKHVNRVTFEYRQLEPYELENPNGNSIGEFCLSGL

[19] = biological target: T6, Corticotropin-releasing factor receptor 2/Corticotropin-releasing factor-binding protein; experiment: Dose Response confirmation of uHTS hits for small molecule antagonists of the CRF-binding protein and CRF-R2 receptor complex.; assay type: functional; details: read-out: IC50_Mean
[20] = HEK293T cytotoxicity, dose response, cytotoxicity control for miR-122 modulator project, cell-based, inhibitor set, cherry-pick, set 2 (AID 720697); assay type: functional
cells = assay type: functional

T1 sequence (P63165 whole entry): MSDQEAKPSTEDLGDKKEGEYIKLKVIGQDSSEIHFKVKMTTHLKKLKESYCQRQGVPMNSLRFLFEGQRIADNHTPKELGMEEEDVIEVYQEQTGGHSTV

In the case of O=C(O)c1cc(O)c2c(c1)[C@@H]([C@H]1c3cc(C(=O)O)cc(O)c3C(=O)c3c(O[C@@H]4O[C@H](CO)[C@@H](O)[C@H](O)[C@H]4O)cccc31)c1cccc(OC3O[C@H](CO)[C@@H](O)[C@H](O)[C@H]3O)c1C2=O (stereo partly drawn), the IC50 [1] is reported as 30.6 µM (inactive), the IC50 (Troponin, cardiac muscle) is reported as 1.82 µM (active) and the AC50 [2] is reported as > 100 µM (inactive). For the same compound, the IC50 [3] was 12 µM (active) and the IC50 [4] was 1.06 µM (active).

In the case of O=c1cc(-c2cc3ccccc3o2)c2cc(O)ccc2o1, the IC50 [5] is reported as 24.1 µM (inactive) and the IC50 [6] is reported as 19.7 µM (active).

In the case of COCCn1c(=O)[nH]c(=O)c2cc(C(=O)c3cc(Cl)ccc3O)cnc21, the EC50 [7] is reported as > 180 µM (inactive), the EC50 [8] is reported as 1.12 µM (active) and the EC50 [9] is reported as > 160 µM (inactive). For the same compound, the EC50 [10] was > 160 µM (inactive).

In the case of COc1ccc(C(=O)Nc2ccc3ncccc3c2)cc1, the AC50 [11] is reported as 5.45 µM (active), the AC50 [12] is reported as 47 µM (active) and the AC50 [13] is reported as 37.8 µM (active). For the same compound, the AC50 [14] was 7.29 µM (active).

For COc1ccc(Nc2ccnc3ccccc23)cc1, the AC50 [15] was 28.3 µM (active), the IC50 [5] was 30.1 µM (inactive) and the IC50 [6] was 23.4 µM (inactive).

For Cc1c(C(=O)NCCN2CCOCC2)oc2ccc(Br)cc12, the IC50 [16] was 1.02 µM (active).

For CSc1c(C#N)sc(=S)n1-c1ccc(C)cc1, the IC50 [17] was > 20 µM (inactive), the EC50 [18] was > 53 µM (inactive) and the IC50 [19] was 11.9 µM (active).

With N#CN=C(Nc1cccc(F)c1)SCc1ccccc1F the IC50 [17] was 1.67 µM (active), the EC50 [18] was > 53 µM (inactive) and the IC50 [19] was 6.82 µM (active).

For O=C(COc1cccc2ccccc12)Nc1nc2ccccc2[nH]1, the AC50 [20] was 8.06 µM (active) and the IC50 (cells) was 6.2 µM (active).

With CCCn1nc(C(=O)N(C)CC(=O)Nc2ccc(OCC)c(OCC)c2)c2ccccc2c1=O the IC50 [16] was 10.5 µM (inactive).

For Oc1nc2ccccc2n1C1CCN(C(c2ccnc3ccccc23)c2nnnn2-c2ccc3c(c2)OCCO3)CC1 (stereo not drawn), the IC50 [16] was 15.3 µM (inactive).

In the case of Nc1nc(=O)[nH]cc1F [FLUCYTOSINE], the EC50 [7] is reported as > 180 µM (inactive), the EC50 [8] is reported as 0.252 µM (active) and the EC50 [9] is reported as > 160 µM (inactive). The EC50 [10] was > 160 µM (inactive).
